The source of these data is US20220017833A1, “Methods and Compositions for Scavenging Sulfides from Hydrocarbon Fluids and Aqueous Streams” (Nexgen Oilfield Chemicals, LLC, priority 2019, published 2022).

Test [1] is described as follows: Short Reaction Time Capacity Test. As to conditions: for Min/Eq BT / Min/Eq FD / Min to BT / Min to FD: 20 g test; for Min to BT / Min to FD: 3.00 g BuOH, GIDA 6.68 g as GID, 3.32 g water. The text has this: (§1) Referring now to FIG. 1, therein is schematically depicted a sulfide scavenger testing system 100 comprising a gas source 2, a flow regulator 4, gas treatment vessel 6, and a sulfide measurement device 8. In one testing embodiment, gas (not shown) is flowed from gas source 2 via gas feed piping 10 into flow regulator 4, which regulates gas flow to gas treatment vessel 6 via regulated gas feed piping 12. The regulated gas flows into gas treatment vessel 6 via a bottom inlet 14 thereof, where it comes into contact with a volume of liquid 16 comprising a sulfide scavenger system (not separately labeled). The gas, having been treated by the liquid, flows out of a top end 18 of gas treatment vessel 6 and flows into sulfide measurement device 8 via treated gas outlet piping 20.
In one embodiment, gas flow from the flow regulator 4 is controlled such that the gas is flowed into the gas treatment vessel 6 at a flow rate of 100 mL/min. up to 500 mL/min. In one embodiment, a gas sparging device, such as a fine pore frit (not shown), is utilized to better distribute the gas into the scavenger liquid. In one embodiment, the gas treatment vessel 6 contains about 20 g of a liquid H2S scavenger, such as one or more diaminols/diaminacetals in a chemical system as described above. In one aspect, to the extent possible, H2S and/or CO2 are scavenged from the gas by the scavenger and the treated (“sweet”) gas exits top end 18 of treatment vessel 6. In one embodiment, sulfide measurement device 8 monitors the concentration of H2S leaving treatment vessel 6. in the gas phase. In other embodiments (not shown), a CO2 measurement device may be similarly employed to monitor the concentration of CO2 leaving treatment vessel 6 in the gas phase.
(§2) In one embodiment, gas is flowed through sulfide scavenger testing system 100 until the outlet H2S concentration reaches a 4,000 ppm target, at which point the test is concluded. This relative time duration before the target is reached is used to compare H2S scavenger capacity given the kinetics of each sulfide scavenger system. The longer the duration, the better the capacity.
(§3) The fine bubbles produced rise slowly, providing plenty of time, plenty of surface area, and a short path through which the H2S must diffuse to the scavenger in the liquid 16. Detector 8 on the outlet line 20 is used to measure H2S concentration in the exiting gas. The times to first detection (FD), at a threshold of 15 ppm, and to complete breakthrough (BT), at the detector saturation of 4000 ppm (0.4%), are recorded. This test is designed to measure the effective scavenging capacity in applications with long contact times.
This test is the same as the Long Reaction Time Capacity Test, but without the gas sparging device, so as to produce larger bubbles, and at a higher feed rate of 200 mL/min, after the first 8 minutes at 100 mL/min. The larger bubbles rise quickly through the liquid 16, providing little time, little surface area, and a long path through which the H2S must diffuse to the scavenger in the liquid. This test is designed to measure the effective scavenging capacity in applications with short contact times. It is far more reaction rate dependent than the Long Reaction Time Capacity and so is a more critical and differentiating test.
With triazine, one H2S reacts twice with the same molecule of triazine, replacing one amine, so the rate is “first order”, meaning proportional to the concentration of triazine.

Test [2] is described as follows: operational testing in a natural gas production facility. As to conditions: natural gas production facility. The procedure: In operational testing in a natural gas production facility, both an anhydrous glyoxy isopropyl aminacetal (GIDAc) scavenging system and an aqueous glyoxy isopropyl diaminol (GIDA) scavenging system were tested in comparison with an industry standard triazine-based scavenger.

Test [3] in a line: Long Reaction Time Capacity Test. As to conditions: for Min/Eq BT / Min/Eq FD / Min to BT / Min to FD: 20 g test.
Source text: as §1
In one embodiment, the gas contained in gas source 2 consists substantially of about 15% H2S, and about 3% CO2, with the remainder being Methane. In one embodiment, gas flow from the flow regulator 4 is controlled such that the gas is flowed into the gas treatment vessel 6 at a flow rate of 100 mL/min. up to 500 mL/min. In one embodiment, a gas sparging device, such as a fine pore frit (not shown), is utilized to better distribute the gas into the scavenger liquid. In one embodiment, the gas treatment vessel 6 contains about 20 g of a liquid H2S scavenger, such as one or more diaminols/diaminacetals in a chemical system as described above. In one aspect, to the extent possible, H2S and/or CO2 are scavenged from the gas by the scavenger and the treated (“sweet”) gas exits top end 18 of treatment vessel 6. In one embodiment, sulfide measurement device 8 monitors the concentration of H2S leaving treatment vessel 6. in the gas phase. In other embodiments (not shown), a CO2 measurement device may be similarly employed to monitor the concentration of CO2 leaving treatment vessel 6 in the gas phase.
as §2
as §3, with “In this test, methane containing 15% H2S and 3% CO2 by weight is sparged via a fine pore frit (not shown) at 100 mL/min through a column of 20 g of scavenger solution (See FIG. 1). The fine” for “The fine”
Note that the true total capacity of a scavenger with infinite time to react is simply equal to the stoichiometry of the reaction—the moles of H2S consumable per mole of scavenging molecule, which can be calculated. This Long Reaction Time Capacity measurement falls short of that ultimate stoichiometric capacity and so is still reaction rate dependent, just less so than the Short Reaction Time Capacity Test.

The mark [4] stands for this setting: Eq/test GIDAc 0.114, GIDA 0.076 (8.00 g MeOH, 2.00 g BuOH).
Setting [5] is: Eq/test Triazine 0.068, GIDAc 0.157, GIDA 0.076 (7.50 g MeOH, 2.50 g BuOH).
[6] abbreviates: GIDAc 8.00 g as GID, 9.00 g MeOH, 8.00 g MeOH, 2.00 g BuOH.
The mark [7] stands for this setting: Triazine 7.50 g + 12.50 g water, GIDAc 11.00 g as GID, 6.00 g MeOH, 7.50 g MeOH, 2.50 g BuOH.
Where [8] appears, read: Short Reaction Time Capacity Test, Table 2 compositions.
The mark [9] stands for this setting: Eq/test Triazine 0.068, GIDAc 0.185, GIDA 0.076.
Setting [10] is: GIDAc 9.00 g as GID + 11.00 g MeOH.
Where [11] appears, read: Triazine 7.50 g + 12.50 g water, GIDAc 13.00 g as GID + 7.00 g MeOH, GIDA 6.68 g as GID, 3.32 g water, 8.00 g MeOH, 2.00 g BuOH.

SMILES strings stand for the structures.

As for `COC(NC(C)C)C(NC(C)C)OC` (stereo not drawn) [GIDAc], the “Min/Eq BT” value in test [1] (setting [4]) is on record as 438 Min/Eq; in test [1] (setting [5]), 376 Min/Eq; in test [3] (setting [9]), 707 Min/Eq; in test [3] (GIDAc 0.128 Eq/test), 771 Min/Eq. For the same compound, the “Min/Eq FD” value in test [1] (setting [4]) is on record as 368 Min/Eq; in test [1] (setting [5]) it was 319 Min/Eq; in test [3] (setting [9]) it was 566 Min/Eq; in test [3] (GIDAc 0.128 Eq/test), 592 Min/Eq. For the same compound, the “Min to BT” value in test [1] (setting [6]) was determined as 50 min; in test [1] (setting [7]) it was 59 min; in test [3] (setting [10]), 99 min; in test [3] (setting [11]) it was 131 min. Moreover, the “Min to FD” value in test [1] (setting [6]) is 42 min; in test [1] (setting [7]) it was 50 min; in test [3] (setting [10]), 76 min; in test [3] (setting [11]) it was 105 min. Further, the “molar capacity at short reaction times (comparison, accounting for molar concentration)” value in test [1] (Graph 1 (FIG. 3)) was “lower molar capacity at short reaction times”. Also, the “contribution to the BT capacity (coefficient of best fit equation)” value in test [1] (setting [8]) was 404 minutes per equivalent. Besides, the “contribution to the FD capacity (coefficient of best fit equation)” value in test [1] (setting [8]) amounted to 324 minutes per equivalent. Further, the “employable in scavenging H2S from natural gas” value in test [2] is recorded as “employable”. The “molar capacity at long reaction times (comparison, accounting for molar concentration)” value in test [3] (Graph 1 (FIG. 3)) is “the same capacity as GIDA at long reaction times”.
